Assay results: patent US6610835B1, “Sphingolipid derivatives and their methods of use” (Emory University, priority 1998, dated 2003)

Tests used:
[1] = tested on: HT-29 cells; assay: MTT assay, induction of cell death by sphingolipids; assay type: cell-based, human
Protocol: The activity of sphingosine, sphinganine and 1-deoxy-5-hydroxy-sphinganine in a human colon cancer cell line was investigated. The structures of the tested compounds appear below. [drawing 4]
An MTT assay was used to determine the cytotoxicity of the compounds shown above. Only cells with intact mitochondria are able to form formazane crystals, whereas late apoptotic and necrotic cells are not. The optical density of formazane crystals is used to infer cell viability. A 15 μM treatment of 1-deoxy-5-hydroxy-sphinganine results in nearly 100% cell death in HT-29 cells after 24 hours.

[2] = molecular target: T1, β-glucuronidase from E. coli (Escherichia coli, UniProt P05804); assay: Cleavage of GluAcCer by bacterial β-glucuronidase; assay type: biochemical; details: β-glucuronidase from E. coli (Sigma), supplier's instructions
T1 construct: purchased Sigma
T1 sequence (P05804 whole entry): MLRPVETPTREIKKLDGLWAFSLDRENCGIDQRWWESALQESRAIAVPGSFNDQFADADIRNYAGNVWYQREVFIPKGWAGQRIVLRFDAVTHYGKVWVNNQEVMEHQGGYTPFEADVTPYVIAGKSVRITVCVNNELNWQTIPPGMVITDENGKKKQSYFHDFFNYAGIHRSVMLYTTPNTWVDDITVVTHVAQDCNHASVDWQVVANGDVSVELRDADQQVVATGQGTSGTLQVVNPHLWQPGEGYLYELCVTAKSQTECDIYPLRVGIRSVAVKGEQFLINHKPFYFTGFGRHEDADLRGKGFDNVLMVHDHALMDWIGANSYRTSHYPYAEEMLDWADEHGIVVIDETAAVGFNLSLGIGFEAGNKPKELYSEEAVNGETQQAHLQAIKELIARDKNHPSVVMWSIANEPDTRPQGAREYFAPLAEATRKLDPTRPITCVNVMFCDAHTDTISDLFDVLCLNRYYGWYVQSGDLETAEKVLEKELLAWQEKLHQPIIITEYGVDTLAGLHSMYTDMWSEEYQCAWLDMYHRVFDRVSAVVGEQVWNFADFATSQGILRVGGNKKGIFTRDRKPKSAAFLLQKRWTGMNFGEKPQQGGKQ
Source text: Glucornoylceramide (GluAcCer), a ceramide with a glucuronic acid headgroup was synthesized according to the methods described above. The metabolism of GluAcCer requires β-glucuronidase, an enzyme found in bacteria but not in human intestinal cells. Accordingly, dietary GluAcCer cannot be digested in the small intestine but should be hydrolyzed in the colon by the colonic microflora.

[3] = tested on: colonic crypts; assay: Cell proliferation in colonic crypts of DMH-treated mice fed GluAcCer; assay type: in vivo
Protocol: Female CF1 mice were injected with DMH to initiate colonic tumors. […] The control group was fed the AIN 76A diet without supplements (one group without DMH and the other with DMH only). After four weeks, the mice were killed, the colons excised, and evaluated for the appearance of ACF.
The effect of GluAcCer on cell proliferation was also investigated since a deregulation of cell growth is observed in carcinogenesis. […] Therefore, feeding synthetic GluAcCer to mice suppresses the formation of early stages in colon carcinogenesis, possibly by restricting the proliferation to the lower half of the colonic crypt.

[4] = tested on: ACF (DMH-initiated colonic tumors); assay: Chemically (DMH) induced colon cancer model, aberrant crypt foci (ACF) after dietary supplementation; assay type: in vivo, Female CF1 mice; details: for ACF: four weeks after DMH, control 30.2±4.19
Protocol: Female CF1 mice were injected with DMH to initiate colonic tumors. After initiation, the mice were fed and AIN 76A diet supplemented with GluAcCer (0.025 or 0.1% of the diet). The control group was fed the AIN 76A diet without supplements (one group without DMH and the other with DMH only). After four weeks, the mice were killed, the colons excised, and evaluated for the appearance of ACF.

[5] = tested on: C3H 10T1/2 cells; details: cited from earlier work; for promotion of transformed foci by phorbol esters: levels that affected protein kinase C but not noticeably cytotoxic
[6] = tested on: renal bladder and colon cancer cell lines; details: cited from earlier work
[7] = tested on: aberrant colonic crypts induced by DMH; details: diet supplemented with 0.05% sphingomyelin, analyzed on week 7; cited from earlier work
[8] = mouse, in vivo; cited from earlier work
[9] = in vivo; cited from earlier work
[10] = tested on: DMH-induced tumors; details: cited from earlier work

In the case of `CCCCCCCCCCCCCC(O)CC(O)C(C)N` (stereo not drawn) [1-deoxy-5-hydroxy-sphinganine], the “potency in inducing cell death relative to sphingosine and sphinganine” value [1] is reported as “at least twice as potent” and the cell death ([1]; 15 μM treatment, after 24 hours) is reported as ~100%.
In the case of `CCCCCCCCCCCCC/C=C/[C@@H](O)[C@H](CO[C@@H]1O[C@H](C(=O)O)[C@@H](O)[C@H](O)[C@H]1O)NC(=O)CCCCCCCCCCCCCCC` [GluAcCer, 1-O-B-D-Glucuronoyl-2N-palmitoylsphingosine], the “ability to be cleaved by bacterial enzymes” value [2] is reported as “cleaved by bacterial enzymes”, the “proliferation in the lower half of the colonic crypts” value ([3]; GluAcCer (FIG. 13b)) is reported as “reduced the proliferation” and the “proliferation in the upper half of the crypts” value ([3]; both concentrations of GluAcCer in the diet (FIG. 13a)) is reported as “reduced proliferation in the upper half of the crypts in a dose dependent manner”. The ACF ([4]; 0.025% GluAcCer in AIN 76A diet) was 21 ±2.94, the “inhibition of ACF formation” value ([4]; 0.025 or 0.1% of the diet, versus control (FIG. 12)) was 20-30% and the ACF ([4]; 0.1% GluAcCer in AIN 76A diet) was 19.2±3.09.
In the case of `CCCCCCCCCCCCCCC[C@@H](O)[C@@H](N)CO` [sphinganine], the “treatment required to produce comparable (nearly 100%) cell death” value ([1]; after 24 hours) is listed as 50 µM, the “number of transformed foci in cells treated with just γ-irradiation” value [5] is listed as “reduced the number of transformed foci” and the “promotion of transformed foci by phorbol esters” value [5] is listed as “completely blocked”.
In the case of `CCCCCCCCCCCCC/C=C/C(O)C(N)CO` [sphingosine, D-erythro-4-trans-sphinganine], the “treatment required to produce comparable (nearly 100%) cell death” value ([1]; after 24 hours) is listed as 50 µM, the “number of transformed foci in cells treated with just γ-irradiation” value [5] is listed as “reduced the number of transformed foci” and the “promotion of transformed foci by phorbol esters” value [5] is listed as “completely blocked”.
In the case of Fumonisin B, the cytostatic activity [6] is given as “has cytostatic activity”.
For sphingomyelin, the “reduction in the number of aberrant colonic crypts induced by DMH” value [7] is given as 50%, the “label appeared in liver sphingolipids” value [8] is given as “About 5%” and the “radiolabel progressed into the colon” value [8] is given as 3-5%. The “peak absorption of radiolabel after feeding” value [9] was 10 h, the “radiolabel found in feces, mainly as ceramide” value [9] was 21-46% and the “radiolabel recovered in lymph” value [9] was “up to 30%”. For the same compound, the “tumor incidence versus control” value ([10]; milk sphingomyelin pilot and buttermilk sphingomyelin experiment) was “about half”, the “tumor type (adenomas versus adenocarcinomas)” value ([10]; second study with buttermilk sphingomyelin, histological analyses) was “more adenomas versus adenocarcinomas than for the control” and the “number of overall tumors” value ([10]; second study with buttermilk sphingomyelin) was “no reduction”.
